According to patent US8609672B2, “Piperazinylpyrimidine analogues as protein kinase inhibitors” (University of the Pacific, priority 2010, dated 2013):

What was measured:
[1] = system: HL-6O(TB); assay: NCI-60 SRB growth inhibition: HL-6O(TB); type: cell-based, human; details: Leukemia, 48 hours treatment
[2] = system: 786-0; assay: NCI-60 SRB growth inhibition: 786-0; type: cell-based, human; details: 786-0, Renal cancer; 48 hours treatment
[3] = system: EKVX; assay: NCI-60 SRB growth inhibition: EKVX; type: cell-based, human; details: Non-small cell lung cancer, 48 hours treatment
[4] = system: HCC-2998; assay: NCI-60 SRB growth inhibition: HCC-2998; type: cell-based, human; details: HCC-2998, Colon cancer; 48 hours treatment
[5] = system: OVCAR-8; assay: NCI-60 SRB growth inhibition: OVCAR-8; type: cell-based, human; details: OVCAR-8, Ovarian cancer, 48 hours treatment
[6] = system: LOX 1MVI; assay: NCI-60 SRB growth inhibition: LOX 1MVI; type: cell-based, human; details: Melanoma, 48 hours treatment
[7] = biological target: T1, ABL kinase (Homo sapiens, UniProt P00519); assay: Functional kinase inhibition assay: ABL; type: biochemical; details: 1 μM compound
T1 construct: purchased Millipore Corp. (Dundee, UK; assay service)
Description: [formula] The assay was performed in duplicates.
The results of kinase function inhibition assay are shown in Table 6, including the F-POC of 1 μM of compounds 4, 15, and 16 against the most sensitive kinases tested within this experiment. […] Kinases within the same subfamily are highlighted.

[8] = system: SN12C; assay: NCI-60 SRB growth inhibition: SN12C; type: cell-based, human; details: Renal cancer, 48 hours treatment
[9] = system: COLO 205; assay: NCI-60 SRB growth inhibition: COLO 205; type: cell-based, human; details: COLO 205, Colon cancer, 48 hours treatment
[10] = system: M0LT-4; assay: NCI-60 SRB growth inhibition: M0LT-4; type: cell-based, human; details: M0LT-4, Leukemia; 48 hours treatment
[11] = system: UACC-257; assay: NCI-60 SRB growth inhibition: UACC-257; type: cell-based, human
[12] = system: M14; assay: NCI-60 SRB growth inhibition: M14; type: cell-based, human; details: M14, Melanoma, 48 hours treatment
[13] = system: MDA-MB-231/ATCC; assay: NCI-60 SRB growth inhibition: MDA-MB-231/ATCC; type: cell-based, human; details: Breast cancer, 48 hours treatment
[14] = system: HCT-15; assay: NCI-60 SRB growth inhibition: HCT-15; type: cell-based, human; details: HCT-15, Colon cancer; 48 hours treatment
[15] = system: NCI-60 cell line panel; assay: NCI-60 SRB growth inhibition: mean over the panel; type: cell-based, human; details: mean over NCI-60 cell lines, 48 hours treatment
[16] = system: SNB-19; assay: NCI-60 SRB growth inhibition: SNB-19; type: cell-based, human; details: SNB-19, CNS cancer, 48 hours treatment
[17] = system: SK-MEL-5; assay: NCI-60 SRB growth inhibition: SK-MEL-5; type: cell-based, human; details: SK-MEL-5, Melanoma; 48 hours treatment
[18] = system: HT29; assay: NCI-60 SRB growth inhibition: HT29; type: cell-based, human; details: HT29, Colon cancer, 48 hours treatment
[19] = system: SF-295; assay: NCI-60 SRB growth inhibition: SF-295; type: cell-based, human
[20] = system: RPMI-8226; assay: NCI-60 SRB growth inhibition: RPMI-8226; type: cell-based, human; details: RPMI-8226, Leukemia, 48 hours treatment
[21] = system: SK-MEL-28; assay: NCI-60 SRB growth inhibition: SK-MEL-28; type: cell-based, human; details: SK-MEL-28, Melanoma, 48 hours treatment
[22] = system: OVCAR-5; assay: NCI-60 SRB growth inhibition: OVCAR-5; type: cell-based, human; details: OVCAR-5, Ovarian cancer, 48 hours treatment
[23] = system: T-47D; assay: NCI-60 SRB growth inhibition: T-47D; type: cell-based, human; details: Breast cancer, 48 hours treatment
[24] = system: A549/ATCC; assay: NCI-60 SRB growth inhibition: A549/ATCC; type: cell-based, human; details: Non-small cell lung cancer, 48 hours treatment
[25] = system: A498; assay: NCI-60 SRB growth inhibition: A498; type: cell-based, human; details: A498, Renal cancer, 48 hours treatment
[26] = system: UACC-62; assay: NCI-60 SRB growth inhibition: UACC-62; type: cell-based, human; details: UACC-62, Melanoma; 48 hours treatment
[27] = system: SW-620; assay: NCI-60 SRB growth inhibition: SW-620; type: cell-based, human; details: SW-620, Colon cancer, 48 hours treatment
[28] = system: NCI/ADR-RES; assay: NCI-60 SRB growth inhibition: NCI/ADR-RES; type: cell-based, human; details: Ovarian cancer, 48 hours treatment
[29] = system: CAKI-1; assay: NCI-60 SRB growth inhibition: CAKI-1; type: cell-based, human; details: CAKI-1, Renal cancer; 48 hours treatment
[30] = system: IGROVI; assay: NCI-60 SRB growth inhibition: IGROVI; type: cell-based, human; details: Ovarian cancer, 48 hours treatment
[31] = system: BT-549; assay: NCI-60 SRB growth inhibition: BT-549; type: cell-based, human
[32] = system: MDA-MB-435; assay: NCI-60 SRB growth inhibition: MDA-MB-435; type: cell-based, human; details: MDA-MB-435, Melanoma, 48 hours treatment
[33] = Homo sapiens, read-out: LC50 (the source's name)

T1 sequence (P00519 whole entry): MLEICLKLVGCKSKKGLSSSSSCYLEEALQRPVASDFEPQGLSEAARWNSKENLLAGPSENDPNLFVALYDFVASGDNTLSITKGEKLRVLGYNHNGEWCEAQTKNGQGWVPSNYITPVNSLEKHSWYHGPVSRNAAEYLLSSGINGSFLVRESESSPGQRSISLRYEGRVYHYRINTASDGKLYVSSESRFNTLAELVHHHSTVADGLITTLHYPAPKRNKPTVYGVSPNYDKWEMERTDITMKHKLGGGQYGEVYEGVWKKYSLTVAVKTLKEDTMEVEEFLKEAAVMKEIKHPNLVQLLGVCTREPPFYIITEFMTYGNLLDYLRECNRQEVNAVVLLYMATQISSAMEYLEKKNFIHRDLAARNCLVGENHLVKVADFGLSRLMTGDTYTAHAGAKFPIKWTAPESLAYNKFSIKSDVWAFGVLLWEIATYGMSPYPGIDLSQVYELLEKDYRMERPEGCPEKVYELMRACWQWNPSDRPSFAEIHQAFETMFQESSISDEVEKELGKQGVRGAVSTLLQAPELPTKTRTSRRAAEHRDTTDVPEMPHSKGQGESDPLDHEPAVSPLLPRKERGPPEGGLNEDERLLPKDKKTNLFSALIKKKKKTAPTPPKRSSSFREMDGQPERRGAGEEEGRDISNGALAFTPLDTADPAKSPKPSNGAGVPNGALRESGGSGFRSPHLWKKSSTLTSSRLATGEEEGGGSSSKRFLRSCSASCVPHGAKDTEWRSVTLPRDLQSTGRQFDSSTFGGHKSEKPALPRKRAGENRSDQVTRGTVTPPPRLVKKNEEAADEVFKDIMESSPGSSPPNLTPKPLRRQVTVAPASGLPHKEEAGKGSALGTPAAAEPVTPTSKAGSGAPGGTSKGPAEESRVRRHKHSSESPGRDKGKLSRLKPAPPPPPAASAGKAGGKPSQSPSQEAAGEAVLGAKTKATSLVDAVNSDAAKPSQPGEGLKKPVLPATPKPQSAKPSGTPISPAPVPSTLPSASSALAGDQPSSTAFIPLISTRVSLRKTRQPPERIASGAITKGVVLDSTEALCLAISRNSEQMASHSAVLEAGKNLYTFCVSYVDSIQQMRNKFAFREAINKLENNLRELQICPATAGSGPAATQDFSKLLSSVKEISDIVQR

For `O=C(c1cccc(Nc2ncnc3ccccc23)c1)N1CCN(c2ncc(Cc3ccccc3)cn2)CC1` [Compound 16, (4-(5-benzylpyrimidin-2-yl)piperazin-1-yl)(3-(quinazolin-4-ylamino)phenyl)methanone], which TGI [1] is on record?
The TGI was 1.54 µM.

And the TGI [2]?
The TGI was 6.61 µM.

And the CC50 [3, 33]?
Its CC50 is greater than 100 µM.

And the TGI [3]?
The TGI was 4.90 µM.

What about the TGI [4] of the same compound?
Its TGI is 3.98 µM.

And the CC50 [5, 33]?
The CC50 was greater than 100 µM.

What about the TGI [5] of the same compound?
Its TGI is 3.31 µM.

What about the TGI [6] of the same compound?
The TGI was 2.45 µM.

And the “inhibitory action over ABL kinase function” value [7]?
Its value is “weak inhibitory action”.

And the CC50 [8, 33]?
Its CC50 is greater than 100 µM.

What about the TGI [8] of the same compound?
Its TGI is 7.08 µM.

What about the TGI [9] of the same compound?
Its TGI is 2.75 µM.

And the CC50 [9, 33]?
The CC50 was 5.5 µM.

And the TGI [10]?
The TGI was 1.34 µM.

And the CC50 ([11]; Homo sapiens, UACC-257, 48 h, read-out: LC50 (the source's name))?
Its CC50 is 5.37 µM.

What about the TGI ([11]; UACC-257, Melanoma, 48 hours treatment) of the same compound?
The TGI was 2.63 µM.

And the CC50 [12, 33]?
The CC50 was 4.68 µM.

What about the TGI [12] of the same compound?
The TGI was 2.14 µM.

What about the TGI [13] of the same compound?
Its TGI is 2.95 µM.

And the TGI [14]?
The TGI was 3.55 µM.

What about the GI50 ([15]; Homo sapiens) of the same compound?
Its GI50 is 1.05 µM.

And the “Mean TGI” value [15]?
The value was 3.24 µM.

What about the CC50 [16, 33] of the same compound?
The CC50 was greater than 100 µM.

What about the TGI [16] of the same compound?
Its TGI is 8.91 µM.

What about the TGI [17] of the same compound?
The TGI was 1.20 µM.

What about the TGI [18] of the same compound?
Its TGI is 9.33 µM.

And the CC50 ([18]; Homo sapiens, HT-29, read-out: LC50 (the source's name))?
The CC50 was greater than 100 µM.

And the CC50 ([19]; Homo sapiens, SF-295, 48 h, read-out: LC50 (the source's name))?
Its CC50 is greater than 100 µM.

What about the TGI ([19]; SF-295, CNS cancer, 48 hours treatment) of the same compound?
The TGI was 2.24 µM.

What about the CC50 [20, 33] of the same compound?
Its CC50 is 3.89 µM.

What about the TGI [20] of the same compound?
The TGI was 0.60 µM.

What about the CC50 [21, 33] of the same compound?
The CC50 was 5.25 µM.

And the TGI [21]?
The TGI was 2.82 µM.

And the CC50 [22, 33]?
Its CC50 is greater than 100 µM.

And the TGI [22]?
Its TGI is 5.75 µM.

And the TGI [23]?
Its TGI is 7.59 µM.

And the CC50 ([23]; Homo sapiens, T47D, read-out: LC50 (the source's name))?
Its CC50 is 5.62 µM.

What about the CC50 [24, 33] of the same compound?
The CC50 was 8.13 µM.

What about the TGI [24] of the same compound?
Its TGI is 3.09 µM.

What about the TGI [25] of the same compound?
The TGI was 5.37 µM.

What about the CC50 [25, 33] of the same compound?
Its CC50 is greater than 100 µM.

And the TGI [26]?
The TGI was 1.86 µM.

And the CC50 [27, 33]?
Its CC50 is greater than 100 µM.

And the TGI [27]?
Its TGI is 4.27 µM.

What about the CC50 [28, 33] of the same compound?
The CC50 was greater than 100 µM.

And the TGI [28]?
Its TGI is 8.51 µM.

What about the TGI [29] of the same compound?
The TGI was 1.91 µM.

What about the CC50 [30, 33] of the same compound?
Its CC50 is 5.01 µM.

And the TGI [30]?
The TGI was 1.82 µM.

And the TGI ([31]; BT-549, Breast cancer, 48 hours treatment)?
Its TGI is 1.74 µM.

What about the CC50 ([31]; Homo sapiens, BT-549, 48 h, read-out: LC50 (the source's name)) of the same compound?
The CC50 was 5.37 µM.

And the CC50 [32, 33]?
The CC50 was 4.57 µM.

And the TGI [32]?
Its TGI is 2.14 µM.
